In patent US7264795B2, “Sunscreen composition” (Merck Patent Gesellschaft, priority 2001, dated 2007):

Key:
[1] = Differential stripping of the stratum corneum (tape stripping with UV/VIS spectroscopy); format: in vitro ADME, porcine
Excerpt: The goal of this study was to determine and compare the distribution of OMC in the stratum corneum of two different formulations as applied to porcine skin, which serves as a model for in vivo human skin applications. The method used has been established (Weigmann H-J, Lademann J, Meffert H, Schaefer H, Sterry W: Determination of the horny layer profile by tape stripping in combination with optical spectroscopy in the visible range as a prerequisite to quantify percutaneous absorption. Skin Pharmacol Appl Skin Physiol, 12:34-45 (1999)) and is described below. This method is based on conventional stripping procedures combined with UV/VIS spectroscopy to determine both the substance, to be analyzed, and, in parallel, the weight of the comeocytes. This since it is possible to obtain the complete stratum corneum with this stripping procedure, the strips thus can be shown as a horny layer profile.
Porcine ear skin is used due to its availability and well-known similarity to human skin. […] Two formulations are applied to an area of 20 cm^2 with a concentration of 2 mg/cm^2 (200 μg OMC/cm^2) and exposed for one hour. […] Afterwards, topical application and stripping was carried out using a standard procedure (The emulsion is applied with a syringe and evenly distributed with a gloved finger. After pressure application, all strips were removed from the marked area). The stripping is repeated as long as the spectral photometer has a transmission of 99.8% compared to the original tape strip as reference.
After evaluation of the amount of stratum corneum photometrically at 900 nm, the strips are extracted with methanol, centrifuged and decanted. Amounts of OMC concentrations are calculated from the ratio peak area of the OMC to an internal OMC calibration curve. The detection limit for OMC is found to be 1 μg/ml±5%. The experiments are carried out in duplicate.
Non-particulate substances lying in the furrows are distributed evenly due to the applied pressure—this releases the substances from the furrows, while particulate substances often remain. […]

[2] = Comparative release through an inert lipophilic membrane (Franz diffusion cell); format: in vitro ADME; conditions: after 6 hours, finite dose 5 mg/cm^2 (572 μg OMC/cell)
Excerpt: The goal of this study is to determine and compare the release of OMC from two different formulations through an inert lipophilic membrane which serves as a model (Jiang R, Benson H A E, Cross S E, Roberts M S. In vitro human epidermal and polyethylene membrane penetration and retention of sunscreen benzophenone-3 from a range of solvents. Pharm. Res., 15: 1863-1886 (1998)) for in vitro human skin applications. (Jiang R, Robert M S, Prankerd R J, Benson H A E. Percutaneous absorption of sunscreen agents from liquid paraffin: self-association of octyl salicylate and effects on skin flux. J. Pharm. Sci., 86: 791-796 (1997); Shah et al: In vitro release from corticosteorid ointments. J. Pham. Sci., 84(9): 1139-1140 (1995);).
Two formulations are prepared, one with free, the other with encapsulated OMC. Both contained the same amount of OMC (see Table 3).
Tuffryn® membranes (200 nm in pore size) are soaked for 30 minutes in isopropyl myristate and blotted dry with tissue paper prior to use. […]
Analysis is by HPLC, OMC concentrations are calculated from the ratio peak area of the OMC to an internal standard and calibration curve.

[3] = Epidermal uptake of UV filters by human epidermis (Franz diffusion cell); format: in vitro ADME
Procedure: The goal of this study is to determine and compare both the release of OMC from two different formulations through human epidermal membranes and the epidermal uptake of OMC.
Human female abdominal skin is used to heat-separate the epidermis from the dermis. The epidermal membranes thus obtained are mounted onto a Franz diffusion cell. The receptor cell contains PBS and 4% (w/v) bovine serum albumin, resulting in a pH of 7.4. The temperature is set to 35° C. Each of the two formulations is applied to 3 cells, non-occluded, with a finite dose concentration of 5 mg/cm^2 (572 μg OMC/cell). […] The duration of examination is 6 hours, 200 μl of the receptor phase is removed at specific points of time and analyzed by HPLC. To analyze the epidermal uptake, the remaining formulation is wiped from the surface of the epidermis with alcohol-soaked tissue and the skin is stripped once with adhesive tape, which is then discarded. A circular punch is used to remove a constant area of epidermis exposed to the formulations. After extraction, OMC concentrations are analyzed by HPLC.

Share of the stratum corneum (SC) down to which OMC is found ([1]; 10% OMC formulation, 2 mg/cm^2, exposed one hour, 100% SC = 20 μm): 75 % of the SC
Maximum depth in the SC where OMC can be detected ([1]; 10% OMC formulation, 2 mg/cm^2, exposed one hour, horny layer about 20 μm): ≤ 15 μm
OMC amount in the deepest strip ([1]; strip at 15 μm depth (75% of the SC)): 1 μg/cm^2
OMC reaching the receptor cell as share of the applied amount [2]: 12.5%
OMC reaching the receptor cell ([2]; 8.8% OMC, n=3): 72 µg
Epidermal uptake of OMC per mg of epidermal tissue ([3]; after 6 hours of exposure, finite dose 5 mg/cm^2, 8.8% OMC): 3.3 μg/mg tissue
Epidermal absorption compared to Eusolex UV-Pearls ([3]; heat-separated human epidermis, 6 hours): 3 fold
Structure (SMILES): CCCCC(CC)COC(=O)C=Cc1ccc(OC)cc1 (centres unmarked) [Free OMC, octyl methoxycinnamate]
UV filter penetrating the epidermis into the receptor phase ([3]; 6 hours, finite dose 5 mg/cm^2 (572 μg OMC/cell), 8.8% OMC): no significant amount of UV filter penetrating the epidermis
